From patent publication US20100137346A1, “DESFE[…] ACTINIDE DEC[…]” (priority 2006, published 2010)

Legend:
[1] = Chelator-induced uranium excretion (urine + bile, 24 h) in bile duct-cannulated rat model; format: in vivo
Procedure: Desferrithiocin Analogue Induced Excretion of Uranium. In order to compare results with previous chelator-induced iron excretion data, the uranium clearance studies were carried out in a bile duct-cannulated rat model. The animals were given uranyl acetate dihydrate SC at a dose of 5 mg/kg (the actual dose of uranium is 2.8 mg/kg). Bile and urine samples were collected for 24 hours after dosing. Kidneys were removed from selected animals and tissue uranium concentration measured. At least three animals were utilized in each experimental group. Data from two separate control studies (uranyl acetate/ no chelator) have now been combined for a total of 14 control animals. All uranium concentrations were measured using ICPMS. The data are reported as the total quantity of uranium excreted [urine +bile]; the mode of excretion [urine/bile] is also given. In addition the percentage of the administered dose of uranium cleared and chelator-induced uranium excretion vs the controls is also given. Four positive controls were evaluated: DTPA (13, Table 1) given as its trisodium calcium salt, DFO (14), N,N′-bis(2hydroxybenzyl)ethylenediamine-N,N′-diacetic acid, monosodium salt (NaHBED, 15) and the hydroxypyridone CP94 (16) shown to bind uranium [Pashalidis, et al., Effective complex formation in the interaction of 1,2-dimethyl-3-hydroxypyrid-4-one (Deferiprone or L1) with uranium(VI), Journal of Radioanalytical and Nuclear Chemistry 1999; 242:181-184.] The total metal cleared after 24 h in control rats was 10% of the administered dose. When DTPA, 13, was given IP or PO at 300 μmol/kg immediately after uranium, the excretion was 17% and 8% of the administered dose respectively (p>0.05). However, when the drug was given IP at a dose of 600 μmol/kg immediately post-metal, the uranium excretion was significant, 20% (p<0.005). This is consistent with previously published data using a similar animal model.[Domingo, et al., Comparative effects of the chelators sodium 4,5-dihydroxybenzene-1,3-disulfonate (Tiron) and diethylenetriaminepentaacetic acid (DTPA) on acute uranium nephrotoxicity in rats, Toxicology 1997; 118:49-59] DFO (14) and CP94 (16) given IP immediately post uranyl acetate were ineffective.
Desferrithiocin Analogue-Induced Excretion of Uranium. In order to compare results with previous chelator-induced iron excretion data, the uranium clearance studies were carried out in a bile duct-cannulated rat model. The animals were given uranyl acetate dihydrate SC at a dose of 5 mg/kg (the actual dose of uranium is 2.8 mg/kg). Bile and urine samples were collected for 24 hours after dosing. Kidneys were removed from selected animals and tissue uranium concentration measured. At least three animals were utilized in each experimental group. Data from two separate control studies (uranyl acetate/ no chelator) are combined for a total of 14 control animals. All uranium concentrations were measured using ICPMS. The data are reported as the total quantity of uranium excreted [urine +bile]; the mode of excretion [urine/bile] is also given. In addition the percentage of the administered dose of uranium cleared and chelator-induced uranium excretion vs the controls is also given. Four positive controls were evaluated: DTPA (1, Table 1) given as its trisodium calcium salt, DFO (2), N,N -bis(2-hydroxybenzyl)ethylenediamine-N,N-diacetic acid, monosodium salt (NaHBED, 3) and the hydroxypyridone CP94 (4) shown to bind uranium. The total metal cleared after 24 h in control rats was 10% of the administered dose. When DTPA, 1, was given IP or PO at 300 μmol/kg immediately after uranium, the excretion was 17% and 8% of the administered dose respectively (p>0.05). However, when the drug was given IP at a dose of 600 μmol/kg immediately post metal, the uranium excretion was significant, 20% (p<0.005). This is consistent with previously published data using a similar animal model.^2 DFO (2) and CP94 (4) given IP immediately post uranyl acetate were ineffective.

[2] = cited from earlier work; for relative percentages of the iron excreted in the stool and urine / Iron Clearing Efficiency (%): orally to C. apella primates, 150 μmol/kg, data from ref 19 / ref 17

## O=C(O)CN(CCN(CC(=O)O)CC(=O)O)CCN(CC(=O)O)CC(=O)O [drawing 16]
[1]; 300 μmol/kg IP Immediate
  % of Administered Dose Cleared: 17%
  Chelator-Induced U Excretion/Control: 1.7
  Uranium Excretion: 469 ± 271 µg/kg
  Uranium Excretion [urine/bite]: 99/1
[1]; 300 μmol/kg PO Immediate
  % of Administered Dose Cleared: 8%
  Chelator-Induced U Excretion/Control: 0.8
  Uranium Excretion: 235 ± 205 µg/kg
  Uranium Excretion [urine/bite]: 100/0
[1]; 600 μmol/kg IP Immediate
  % of Administered Dose Cleared: 20%
  Chelator-Induced U Excretion/Control: 2.0
  Uranium Excretion: 548 ± 147 µg/kg
  Uranium Excretion [urine/bite]: 100/0

## CC1(C)SC(c2ccccc2O)=N[C@@H]1C(=O)O [drawing 20]
[1]; 300 μmol/kg IP 0.5 h Post
  % of Administered Dose Cleared: 7%
  Chelator-Induced U Excretion/Control: 0.7
  Uranium Excretion: 200 ± 47 µg/kg
  Uranium Excretion [urine/bite]: 37/63
[1]; 300 μmol/kg IP Immediate
  % of Administered Dose Cleared: 26%
  Chelator-Induced U Excretion/Control: 2.6
  Uranium Excretion: 743 ± 189 µg/kg
  Uranium Excretion [urine/bite]: 8/92

## COCCOCCOCCOc1ccc(C2=N[C@@](C)(C(=O)O)CS2)c(O)c1 [drawing 21]
[1]; 300 μmol/kg IP Immediate
  Uranium Excretion: 626 ± 123 µg/kg
  Uranium Excretion [urine/bite]: 35/65
[1]; Rattus norvegicus, ip, 24 h, 300 μmol/kg IP Immediate, read-out: Chelator-Induced U Excretion/Control
  response vs control in vivo at 300 µmol/kg: 220%

## O=C(O)[C@H]1CSC(c2ccc(O)cc2O)=N1 [drawing 22]
[2]
  relative percentages of the iron excreted in the stool and urine: 70/30
  Iron Clearing Efficiency (%): 4.2 ± 1.4%

## C[C@]1(C(=O)O)CSC(c2ccc(O)cc2O)=N1 [drawing 23]
[2]
  relative percentages of the iron excreted in the stool and urine: 86/14
  Iron Clearing Efficiency (%): 13.4 ± 5%

## COc1ccc(C2=N[C@@H](C(=O)O)CS2)c(O)c1 [drawing 24]
[2]
  relative percentages of the iron excreted in the stool and urine: 81/19
  Iron Clearing Efficiency (%): 16.2 ± 3.2%

## COc1ccc(C2=N[C@@](C)(C(=O)O)CS2)c(O)c1 [drawing 25]
[2]
  relative percentages of the iron excreted in the stool and urine: 91/9
  Iron Clearing Efficiency (%): 24.4 ± 10.8%

## desferrioxamine [DFO, reference compound]
[2]; subcutaneous administration, iron-loaded Cebus apella primate
  ICE: 5.0±2.6%
[1]; given IP immediately post uranyl acetate, doses per Table 1
  uranium clearance, in words: ineffective
